In patent publication US4370489A, “Herbicidal compounds” (Hoechst Aktiengesellschaft, priority 1976, dated 1983):

Legend:
Echinochloa = assay: Post-emergence greenhouse pot trial, Echinochloa (Example I, Table I); assay type: in vivo; conditions: greenhouse pots, 4 weeks
Method: (§1) Seeds of weed grasses were sown in pots filled with loamy soil and placed in the greenhouse for germination and emergence. As soon as the plants had developed 3 or 4 leaves, they were sprayed with wettable powder formulations, suspended in water, of compounds according to the invention.
(§2) The results and also the results of all following examples were evaluated 4 weeks later according to the following scheme:
(§3) 4 is still considered an acceptable herbicidal effect in weeds and a satisfactory preserving effect in crop plants (cf. Bolle, Nachrichtenblatt des Deutschen Pflanzenschutzdienstes 16, 1964, pages 92-94).
(§4) Effect on weed grasses in a post-emergence trial in pots
(§5) in the greenhouse (Evaluation scheme)

Setaria = assay: Post-emergence greenhouse pot trial, Setaria (Example I, Table I); assay type: in vivo; conditions: greenhouse pots, 4 weeks
Method: as §1, §2, §3, §4, §5

Lolium = assay: Post-emergence greenhouse pot trial, Lolium (Example I, Table I); assay type: in vivo; conditions: greenhouse pots, 4 weeks
Method: as §1, §2, §3, §4, §5

wild oat = assay: Post-emergence trial in the greenhouse, wild oat (Example VII, Table VII); assay type: in vivo; conditions: 31 kg/hectare, emulsion concentrate, 4 weeks after treatment
Method: as §2
In a greenhouse some of the compounds of the invention were sprayed on plants of wild oat, the compounds being used as emulsion concentrates.
(§6) Post-emergence trial in the greenhouse
Effect on wild oat 4 weeks after treatment
Dose 31 kg/hectare of active compound (as emulsion

weed grasses = assay: Pre-emergence greenhouse pot trial, weed grasses overall (Example V); assay type: in vivo; conditions: in words
Method: as §2
In a greenhouse the compounds to be tested were sprayed on the surface of the soil directly after sowing. […] Dicotyledonous crop plants (the same as used in Example I) were not damaged by the applied amounts.
Effect on weed grasses in a pre-emergence process (evalua-
tion scheme) experiment in pots in the greenhouse.

Alopecurus = assay: Post-emergence greenhouse pot trial, annual blackgrass (Example I, Table I); assay type: in vivo, annual blackgrass (Alopecurus); conditions: greenhouse pots, 4 weeks
Method: as §1, §2, §3, §4, §5

Digitaria = assay: Post-emergence greenhouse pot trial, Digitaria (Example I, Table I); assay type: in vivo; conditions: greenhouse pots, 4 weeks
Method: as §1, §2, §3, §4, §5

barnyard grass = assay: Post-emergence trial in the greenhouse, barnyard grass (Example VIII, Table VIII); assay type: in vivo; conditions: 31 kg/hectare, wettable powder, 4 weeks after treatment, 3 to 4 leaf-stage
Method: as §2
In a similar trial some of the compounds of the invention were sprayed in the form of wettable powder formulations on barnyard grass in the 3 to 4 leaf-stage.
as §6
Effect on barnyard grass 4 weeks after treatment
Dose 31 kg/hectare of active compound (as wettable

| SMILES | Effect on weed grasses (evaluation scheme number), Echinochloa (Echinochloa; 0.15 kg/hectare) | Effect on weed grasses (evaluation scheme number), Echinochloa (Echinochloa; 0.62 kg/hectare) | Effect on weed grasses (evaluation scheme number), Echinochloa (Echinochloa; 2.5 kg/hectare) | Effect on weed grasses (evaluation scheme number), Setaria (Setaria; 0.15 kg/hectare) | Effect on weed grasses (evaluation scheme number), Setaria (Setaria; 0.62 kg/hectare) | Effect on weed grasses (evaluation scheme number), Setaria (Setaria; 2.5 kg/hectare) | Effect on weed grasses (evaluation scheme number), Lolium (Lolium; 0.15 kg/hectare) | Effect on weed grasses (evaluation scheme number), Lolium (Lolium; 0.62 kg/hectare) | Effect on weed grasses (evaluation scheme number), Lolium (Lolium; 2.5 kg/hectare) | effect (number) on wild oat (wild oat) | effect in pre-emergence treatment compared with comparative compound A (weed grasses) | Effect on weed grasses (evaluation scheme number), Alopecurus (Alopecurus; 0.15 kg/hectare) | Effect on weed grasses (evaluation scheme number), Alopecurus (Alopecurus; 0.62 kg/hectare) | Effect on weed grasses (evaluation scheme number), Alopecurus (Alopecurus; 2.5 kg/hectare) | Effect on weed grasses (evaluation scheme number), Digitaria (Digitaria; 0.15 kg/hectare) | Effect on weed grasses (evaluation scheme number), Digitaria (Digitaria; 0.62 kg/hectare) | Effect on weed grasses (evaluation scheme number), Digitaria (Digitaria; 2.5 kg/hectare) | effect (number) on barnyard grass (barnyard grass) |
| --- | --- | --- | --- | --- | --- | --- | --- | --- | --- | --- | --- | --- | --- | --- | --- | --- | --- | --- |
| CCOC(=O)C(C)Oc1ccc(Oc2ccc(Br)cc2Cl)cc1 (stereo not drawn) [Compound 1b, 4-(2'-chloro-4'-bromophenoxy)-α-phenoxy-propionic acid ethyl ester] | 1 (100) | 1 (100) | 1 (100) | 1 (100) | 1 (100) | 1 (100) | 6 (75.0 to <85.0) | 2 (97.5 to <100) | 1 (100) | 1 (100) | Analogous results | 6 (75.0 to <85.0) | 1 (100) | 1 (100) | 7 (65.0 to <75.0) | 1 (100) | 1 (100) | – |
| CC(C)OC(=O)C(C)Oc1ccc(Oc2ccc(Br)cc2Cl)cc1 (stereo not drawn) [Compound 1c, 4-(2'-chloro-4'-bromophenoxy)-α-phenoxy-propionic acid isopropyl ester] | 1 (100) | 1 (100) | 1 (100) | 3 (95.0 to <.97.5) | 1 (100) | 1 (100) | 5 (85.0 to <90.0) | 4 (90.0 to <95.0) | 3 (95.0 to <.97.5) | 1 (100) | Analogous results | 6 (75.0 to <85.0) | 3 (95.0 to <.97.5) | 1 (100) | 7 (65.0 to <75.0) | 4 (90.0 to <95.0) | 1 (100) | 1 (100) |
| CCCCOC(=O)C(C)Oc1ccc(Oc2ccc(Br)cc2Cl)cc1 (stereo not drawn) [Compound 1d, 4-(2'-chloro-4'-bromophenoxy)-α-phenoxy-propionic acid n-butyl ester] | 2 (97.5 to <100) | 1 (100) | 1 (100) | 2 (97.5 to <100) | 1 (100) | 1 (100) | 6 (75.0 to <85.0) | 4 (90.0 to <95.0) | 2 (97.5 to <100) | 1 (100) | Analogous results | 3 (95.0 to <.97.5) | 2 (97.5 to <100) | 1 (100) | 6 (75.0 to <85.0) | 1 (100) | 1 (100) | – |
| CC(C)COC(=O)C(C)Oc1ccc(Oc2ccc(Br)cc2Cl)cc1 (stereo not drawn) [Compound 1e, 4-(2'-chloro-4'-bromophenoxy)-α-phenoxy-propionic acid isobutyl ester] | – | – | – | – | – | – | – | – | – | 2 (97.5 to <100) | – | – | – | – | – | – | – | – |
| CC(Oc1ccc(Oc2ccc(Br)cc2Cl)cc1)C(=O)O (stereo not drawn) [Compound 2b] | – | – | – | – | – | – | – | – | – | – | – | – | – | – | – | – | – | 3 (95.0 to <.97.5) |
| CC(Oc1ccc(Oc2ccc(Br)cc2Cl)cc1)C(=O)O (stereo not drawn) [Compound 2c] | – | – | – | – | – | – | – | – | – | – | – | – | – | – | – | – | – | 1 (100) |
| CC(Oc1ccc(Oc2ccc(Br)cc2Cl)cc1)C(=O)O (stereo not drawn) [Compound 2d] | – | – | – | – | – | – | – | – | – | – | – | – | – | – | – | – | – | 1 (100) |
| CC(Oc1ccc(Oc2ccc(Br)cc2Cl)cc1)C(=O)O (stereo not drawn) [Compound 2e] | – | – | – | – | – | – | – | – | – | – | – | – | – | – | – | – | – | 4 (90.0 to <95.0) |
